Assay results published in patent US8911953B2, “TDF-related compounds and analogs thereof, analogs and bioactive fragments” (Thrasos Innovation, Inc., priority 2005, dated 2014).
No end group written: not given here.

Experiments:
[1] = test system: rat osteosarcoma (17/2.8) cells; experiment: Rat osteosarcoma (ROS) cell-based alkaline phosphatase assay; details: 0.02-200 uM, 2 days, relative to BMP-7 standard
Protocol: BMP interactions with Type I and Type II receptors can induce alkaline phosphatase activity, a marker for osteoblast activity, in ROS cells. An assay procedure as described in Maliakal, J. C., Asahina, I., Hauschka, P. V., and Sampath, T. K. (1994) Growth factors 11, 227-234, was used to determine the biological activities of TDFRP compounds. In a typical experiment, rat osteosarcoma (17/2.8) cells are plated in 96 well plates (3.0×10^4 cells/well) and incubated overnight at 37 C in 5-6% CO2 incubator. The next day, healthy and confluent cells are treated with increasing concentrations of BMP-7 standard (1-10,000 ng/ml) served as positive control or TDFRP compounds (0.02-200 uM) prepared in medium containing 1% FBS and incubated for 2 days at 37 C in 5-6% CO2 incubator. The cellular content of alkaline phosphatase activity is determined by the method of Reddi and Huggins (Reddi, A. H., and Huggins, C. B (1972) Proc. Natl. Acad. Sci. USA 69, 1601-1605). Enzyme estimations are performed in 96 well plates. Following removal of culture medium, cells are washed with pre-warmed PBS (150 ul) and incubated in 100 ul of pre-warmed 1% Triton X-100 for 30 minutes at 37 C. Plates are centrifuged for 10 minutes at full speed, and recovered samples (15 ul) are assayed for enzyme activity by adding 90 ul p-nitrophenyl phosphate (Sigma) as a substrate in 0.05 M glycine-NaOH buffer, pH 9.3 and incubating for 20 minutes at 37 C. The reaction is stopped by adding 75 ul of 0.2 N NaOH/well and absorbance at 405/490 nm is measured on a Dynatech MR 700 plate reader. Results are expressed as relative activities compared to a BMP-7 standard.
BMP interactions with Type I and Type II receptors can induce alkaline phosphatase activity, a marker for osteoblast activity, in ROS cells. An assay procedure as described earlier (Maliakal, J. C., Asahina, I., Hauschka, P. V., and Sampath, T. K. (1994) Growth factors 11, 227-234) was used to determine the biological activities of TDFRP compounds. In a typical experiment, rat osteosarcoma (17/2.8) cells are plated in 96 well plates (3.0×10^4 cells/well) and incubated overnight at 37° C. in 5-6% CO2 incubator. […] The cellular content of alkaline phosphatase activity is determined by the method of Reddi and Huggins (Reddi, A. H., and Huggins, C. B (1972) Proc. Natl. Acad. Sci. USA 69, 1601-1605). […] The reaction is stopped by adding 75 ul of 0.2 N NaOH/well and absorbance at 405/490 nm is measured on a Dynatech MR 700 plate reader. Results are expressed as relative activities compared to a BMP-7 standard.

[2] = test system: vascular endothelial cells; experiment: Smad 1, 5 phosphorylation in vascular endothelial cells (Western blot); type: cell-based; details: added to vascular endothelial cells in culture
Protocol: (§1) Phosphorylation and nuclear translocation of Smads occurs following the activation of Type I and Type II receptors and subsequent signal transduction to intracellular Smad targets. Phosphorylation and nuclear translocation of R-Smad in HK-2, vascular endothelial, human prostate or other cells by TDFRP compounds is assayed by immuno-fluorescent microscopy methods, using anti-phospho Smad 1/5 antibodies according to the procedure of H Aoki, M Fujii, T Imamura, K Yagi, K Takehara, M Kato and K Miyazono. J. of Cell Sci. 114, 1483-1489, 2001) and by Western blot analysis (FIGS. 2, 3, 18, 2X).
The detection of Smad phosphorylation by Western analysis, for example in LNCaP (prostate cancer cells) or EC (vascular endothelial cells) in culture medium can be examined after exposure to varying concentrations of TDFRP or control compounds. BMP-7 serves as a positive control. Cells are lysed in RIPA lysis buffer (50 mM Tris-HCl at pH 8.0, 150 mM NaCl, 1% NP-40, 0.5% sodium deoxycholate, 0.1% SDS) containing 1 mM PMSF, 1 mM sodium orthovanadate, and 10 ug/mL proteinase inhibitor cocktail. Lysates are incubated on ice for 15 minutes, centrifuged, and transferred supernatant to a clean tube. 50 to 100 ug is used for analysis by SDS-PAGE. Resolved proteins are electro transferred onto PVDF membrane. The blot is blocked by incubating in 3% non-fat dry milk prepared in PBS at room temperature for 1 hour with constant slow agitation. The blot is incubated with 1-2 ug/mL of primary antibody (rabbit anti-phospho-Smad 1) prepared in PBS-milk, overnight with agitation at 4 degree C., washed twice with PBS, and incubated with secondary antibody (anti rabbit HRP conjugated IgG, 1:3000 dilution) at room temperature for 2 hours with agitation. After washing in PBS-0.05% Tween 20 for 5 minutes and rinsing, Smad phosphorylation is detected via an HRP reaction according to manufacturer's instructions (FIGS. 2, 3, 18, 2X).
as §1, with “HK-2” for “HK-2, vascular endothelial, human prostate or other”, “analysis in various cell types” for “analysis”, “27).” for “2X).”
For detection of Smad phosphorylation by Western analysis, LNCaP (prostate cancer cells) or EC (vascular endothelial cells) in culture medium are exposed to varying concentrations of TDFRP or control compounds. BMP-7 served as a positive control. Cells are lysed in RIPA lysis buffer (50 mM Tris-HCl at pH 8.0, 150 mM NaCl, 1% NP-40, 0.5% sodium deoxycholate, 0.1% SDS) containing 1 mM PMSF, 1 mM sodium orthovanadate, and 10 ug/mL proteinase inhibitor cocktail. Lysates are incubated on ice for 15 minutes, centrifuged, and transferred supernatant to a clean tube. 50 to 100 ug is used for analysis by
SDS-PAGE. Resolved proteins are electro transferred onto PVDF membrane. The blot is blocked by incubating in 3% non-fat dry milk prepared in PBS at room temperature for 1 hour with constant slow agitation. The blot is incubated with 1-2 ug/mL of primary antibody (rabbit anti-phospho-Smad 1) prepared in PBS-milk, overnight with agitation at 4 degree C., washed twice with PBS, and incubated with secondary antibody (anti rabbit HRP conjugated IgG, 1:3000 dilution) at room temperature for 2 hours with agitation. After washing in PBS-0.05% Tween 20 for 5 minutes and rinsing, Smad phosphorylation is detected via an HRP reaction according to manufacturer's instructions (FIGS. 3, 27).

[3] = test system: synovial membrane-derived mesenchymal stem cells; experiment: Chondrogenic differentiation, extracellular matrix deposition by alcian blue staining; type: cell-based
Description: Influence of TDFRP compounds (SEQ ID NO 16, 33, 45, 217, 221) on chondrogenic differentiation of synovial membrane-derived mesenchymal stem cells leading to increased extracellular matrix deposition as determined by alcian blue staining. TDFRP compounds, SEQ ID NO:16, 33, 45, 217, and 221 correspond to Compounds E, A, C, B, and D, respectively.
TDFRP compounds can be used to in the prophylaxis or treatment of diseases of the oral cavity, e.g., by affecting direct capping of bioactive molecules, or inducing the formation of reparative dentin and coronal or radicular pulp mineralization (Goldberg et al., Am J. Dent. 2003 February; 16(1):66-76). Further, TDFRP can be used in the prophylaxis or treatment of periodontal disease. […] TDFRP compounds can be used in the prophylaxis or treatment of traumatic brain injury, e.g., stroke, see, e.g., Cairns and Finkelstein, Phys Med Rehabil Clin N Am. 2003 February; 14(1 Suppl):S135-42). Intravenous administration of BMP-7 after ischemia improves motor function in stroke rats (Chang et al., Stroke. 2003 February; 34(2):558-64) and the TDFRP compounds may protect against or repair reperfusion injury. […] Thrasos compounds that bind to ALK3, a type I receptor for BMP, are therefore analyzed to examine if they induce chondrogenic differentiation leading to extra cellular matrix deposition in synovial membrane-derived mesenchymal stem cells. […]

| Substance | induction of alkaline phosphatase activity [1] | phosphorylation and activation of intracellular Smad 1, 5 [2] | deposition of the extracellular matrix [3] |
| --- | --- | --- | --- |
| CYFDDSSKVICKKYRS [SEQ ID NO:130] | did not induce | – | – |
| CYFDDSSNVLCKKYRS-NH2 (not fully specified (bridges); printed as CYFDDSSNVLCKKYRS-NH2; cysteine pairing not given here) [SEQ ID NO:33] | – | phosphorylation and activation of intracellular Smad 1, 5 | – |
| CYFDDSSNVICKRYRS [SEQ ID NO:24] | – | phosphorylation and activation of intracellular Smad 1, 5 | – |
| CYFNDSSNCLLKKYRS [SEQ ID NO:229] | – | phosphorylation and activation of intracellular Smad 1, 5 | – |
| CYFDDSSSVLCKKYRS [SEQ ID NO:209] | – | phosphorylation and activation of intracellular Smad 1, 5 | – |
| CYFNDSSQVLCKRYRS [SEQ ID NO:221] | did not induce | – | significantly increased |
| CIVNSSDDFLCKKYRS [SEQ ID NO:16] | – | phosphorylation and activation of intracellular Smad 1, 5 | significantly increased |
| CYFDDSSQVICKKYRS [SEQ ID NO:43] | – | phosphorylation and activation of intracellular Smad 1, 5 | – |
| CYFDDSSQVLCKKYRS [SEQ ID NO:65] | did not induce | – | – |
